ChEMBL document CHEMBL2150882, “Discovery of a new molecular probe ML228: an activator of the hypoxia inducible factor (HIF) pathway” (Bioorg Med Chem Lett, 2012)
Active and inactive are the calls of the source. The calls are words filed in the database; no cut-off is given here.

Columns and labels:
[1] = target: Mu-type opioid receptor (Homo sapiens) (UniProt P35372); test: Inhibition of human mu opioid receptor at 10 uM by radioligand displacement assay
Homo sapiens = species on record: Homo sapiens; test: Inhibition of human melatonin MT1 receptor at 10 uM by radioligand displacement assay
[2] = Inhibition of proteasome chymotrypsin-like activity using Suc-LLVY-aminoluciferin as substrate by luciferase-coupled assay; assay type: subcellular
Rattus norvegicus [3] = species on record: Rattus norvegicus; test: Inhibition of rat L-type calcium channel dihydropyridine binding site at 10 uM by radioligand displacement assay
[4] = target: T1, Alpha-1D adrenergic receptor (Homo sapiens) (UniProt P25100); test: Inhibition of human alpha1D adrenergic receptor at 10 uM by radioligand displacement assay
T1 sequence (whole entry): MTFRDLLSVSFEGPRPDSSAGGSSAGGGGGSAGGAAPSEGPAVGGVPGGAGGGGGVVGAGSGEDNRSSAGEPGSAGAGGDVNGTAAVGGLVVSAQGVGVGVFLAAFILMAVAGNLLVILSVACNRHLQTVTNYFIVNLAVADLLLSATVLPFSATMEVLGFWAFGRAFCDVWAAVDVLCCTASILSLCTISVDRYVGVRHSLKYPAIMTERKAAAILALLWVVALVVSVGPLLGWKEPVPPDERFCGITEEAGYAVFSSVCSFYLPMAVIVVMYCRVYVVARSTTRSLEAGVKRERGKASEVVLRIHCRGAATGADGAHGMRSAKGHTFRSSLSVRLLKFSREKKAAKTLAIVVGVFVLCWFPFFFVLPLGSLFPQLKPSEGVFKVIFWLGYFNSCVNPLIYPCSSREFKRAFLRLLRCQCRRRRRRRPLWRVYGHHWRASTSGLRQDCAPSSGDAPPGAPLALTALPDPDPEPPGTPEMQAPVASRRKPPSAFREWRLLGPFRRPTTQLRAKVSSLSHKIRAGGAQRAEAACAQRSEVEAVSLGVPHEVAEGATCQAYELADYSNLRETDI

[5] = target: Sodium-dependent dopamine transporter (Homo sapiens) (UniProt Q01959); test: Inhibition of human DAT at 10 uM by radioligand displacement assay
[6] = target: T2, Adenosine receptor A3 (Homo sapiens) (UniProt P0DMS8); test: Inhibition of human adenosine receptor A3 at 10 uM by radioligand displacement assay
T2 sequence (whole entry): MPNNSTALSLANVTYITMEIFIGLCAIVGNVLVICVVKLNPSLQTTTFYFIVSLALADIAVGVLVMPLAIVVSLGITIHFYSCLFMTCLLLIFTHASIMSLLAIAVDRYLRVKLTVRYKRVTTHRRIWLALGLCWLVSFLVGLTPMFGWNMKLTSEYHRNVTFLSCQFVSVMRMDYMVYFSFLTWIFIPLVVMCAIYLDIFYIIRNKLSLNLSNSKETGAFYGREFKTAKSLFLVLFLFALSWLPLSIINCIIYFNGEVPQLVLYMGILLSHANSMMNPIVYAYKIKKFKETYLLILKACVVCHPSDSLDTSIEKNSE

[7] = target: 5-hydroxytryptamine receptor 2B (Homo sapiens) (UniProt P41595); test: Inhibition of human 5HT2B at 10 uM by radioligand displacement assay
5-hydroxytryptamine receptor 2B (Homo sapiens), sequence (P41595 whole entry): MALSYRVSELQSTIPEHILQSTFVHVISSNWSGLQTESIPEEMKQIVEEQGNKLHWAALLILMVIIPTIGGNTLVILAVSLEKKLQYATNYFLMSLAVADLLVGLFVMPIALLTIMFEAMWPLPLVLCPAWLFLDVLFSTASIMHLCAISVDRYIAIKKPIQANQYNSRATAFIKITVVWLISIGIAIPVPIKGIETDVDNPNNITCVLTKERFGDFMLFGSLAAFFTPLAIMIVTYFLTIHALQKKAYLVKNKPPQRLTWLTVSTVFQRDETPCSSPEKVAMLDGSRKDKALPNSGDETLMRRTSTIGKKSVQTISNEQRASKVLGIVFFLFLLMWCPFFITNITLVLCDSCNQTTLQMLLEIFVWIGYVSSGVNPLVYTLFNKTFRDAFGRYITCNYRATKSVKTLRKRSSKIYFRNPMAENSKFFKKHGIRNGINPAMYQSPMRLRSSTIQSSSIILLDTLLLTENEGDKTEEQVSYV

Rattus norvegicus [8] = species on record: Rattus norvegicus; test: Inhibition of rat sodium channel site 2 at 10 uM by radioligand displacement assay
[9] = target: T3, Alpha-2A adrenergic receptor (Homo sapiens) (UniProt P08913); test: Inhibition of human alpha2A adrenergic receptor at 10 uM by radioligand displacement assay
T3 sequence (whole entry): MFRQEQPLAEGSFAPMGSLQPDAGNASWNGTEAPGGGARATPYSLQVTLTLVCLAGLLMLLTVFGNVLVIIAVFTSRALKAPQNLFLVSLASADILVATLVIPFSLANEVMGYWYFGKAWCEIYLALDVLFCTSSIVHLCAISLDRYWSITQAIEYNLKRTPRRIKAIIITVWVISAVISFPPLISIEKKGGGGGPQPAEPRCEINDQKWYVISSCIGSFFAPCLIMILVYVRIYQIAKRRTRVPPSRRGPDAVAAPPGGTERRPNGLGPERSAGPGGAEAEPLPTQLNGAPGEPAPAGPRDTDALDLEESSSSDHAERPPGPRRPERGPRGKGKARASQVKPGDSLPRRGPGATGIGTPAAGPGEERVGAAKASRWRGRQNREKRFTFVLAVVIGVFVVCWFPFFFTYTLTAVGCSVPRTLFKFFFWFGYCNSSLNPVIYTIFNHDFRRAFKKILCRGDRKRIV

[10] = target: D(3) dopamine receptor (Homo sapiens) (UniProt P35462); test: Inhibition of human dopamine D3 receptor at 10 uM by radioligand displacement assay
D(3) dopamine receptor (Homo sapiens), sequence (P35462 whole entry): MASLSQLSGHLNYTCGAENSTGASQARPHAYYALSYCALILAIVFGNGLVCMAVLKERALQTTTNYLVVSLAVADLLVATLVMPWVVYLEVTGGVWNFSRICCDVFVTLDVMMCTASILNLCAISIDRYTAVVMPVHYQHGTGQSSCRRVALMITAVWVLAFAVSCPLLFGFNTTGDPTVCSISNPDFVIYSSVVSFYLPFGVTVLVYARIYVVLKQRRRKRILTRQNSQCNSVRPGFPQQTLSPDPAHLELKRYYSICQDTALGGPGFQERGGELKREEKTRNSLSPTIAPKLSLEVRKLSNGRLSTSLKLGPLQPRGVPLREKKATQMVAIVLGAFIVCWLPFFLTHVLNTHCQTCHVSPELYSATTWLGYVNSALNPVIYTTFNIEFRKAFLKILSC

U2OS [11] = test: Cytotoxicity against human U2OS cells expressing human HIF1alpha by CellTiterGlo assay in presence of 50 uM iron; assay type: cell-based
U2OS [12] = test: Cytotoxicity against human U2OS cells expressing human HIF1alpha by CellTiterGlo assay in presence of 50 uM zinc; assay type: cell-based
[13] = target: D(1A) dopamine receptor (Homo sapiens) (UniProt P21728); test: Inhibition of human dopamine D1 receptor at 10 uM by radioligand displacement assay
D(1A) dopamine receptor (Homo sapiens), sequence (P21728 whole entry): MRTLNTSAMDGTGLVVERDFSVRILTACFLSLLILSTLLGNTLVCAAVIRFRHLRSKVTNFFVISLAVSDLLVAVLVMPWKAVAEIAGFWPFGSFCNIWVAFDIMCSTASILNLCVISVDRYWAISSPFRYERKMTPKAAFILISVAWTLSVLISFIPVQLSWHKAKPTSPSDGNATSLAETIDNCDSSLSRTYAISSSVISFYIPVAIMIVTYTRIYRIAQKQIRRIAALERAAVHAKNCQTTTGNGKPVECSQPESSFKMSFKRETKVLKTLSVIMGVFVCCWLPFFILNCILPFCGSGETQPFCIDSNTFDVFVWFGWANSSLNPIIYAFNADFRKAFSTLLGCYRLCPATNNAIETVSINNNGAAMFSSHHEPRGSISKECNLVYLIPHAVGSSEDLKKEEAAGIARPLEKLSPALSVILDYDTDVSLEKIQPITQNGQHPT

[14] = target: Sodium-dependent noradrenaline transporter (Homo sapiens) (UniProt P23975); test: Inhibition of human NET at 10 uM by radioligand displacement assay
Sodium-dependent noradrenaline transporter (Homo sapiens), sequence (P23975 whole entry): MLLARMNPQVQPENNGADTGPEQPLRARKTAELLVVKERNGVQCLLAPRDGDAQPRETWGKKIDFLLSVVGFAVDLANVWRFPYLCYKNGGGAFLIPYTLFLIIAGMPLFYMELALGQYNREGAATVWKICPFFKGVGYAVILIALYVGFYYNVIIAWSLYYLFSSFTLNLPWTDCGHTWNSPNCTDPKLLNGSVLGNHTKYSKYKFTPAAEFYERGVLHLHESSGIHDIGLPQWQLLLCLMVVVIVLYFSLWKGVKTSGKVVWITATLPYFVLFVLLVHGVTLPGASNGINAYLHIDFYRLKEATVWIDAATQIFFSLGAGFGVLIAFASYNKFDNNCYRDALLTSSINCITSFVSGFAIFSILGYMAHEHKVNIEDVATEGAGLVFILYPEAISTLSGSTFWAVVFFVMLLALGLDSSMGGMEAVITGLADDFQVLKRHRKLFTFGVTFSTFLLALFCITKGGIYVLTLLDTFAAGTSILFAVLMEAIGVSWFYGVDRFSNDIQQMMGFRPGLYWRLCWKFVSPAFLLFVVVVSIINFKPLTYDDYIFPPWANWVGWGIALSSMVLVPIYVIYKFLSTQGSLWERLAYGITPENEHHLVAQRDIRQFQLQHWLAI

[15] = target: Kappa-type opioid receptor (Homo sapiens) (UniProt P41145); test: Inhibition of human kappa opioid receptor at 10 uM by radioligand displacement assay
Kappa-type opioid receptor (Homo sapiens), sequence (P41145 whole entry): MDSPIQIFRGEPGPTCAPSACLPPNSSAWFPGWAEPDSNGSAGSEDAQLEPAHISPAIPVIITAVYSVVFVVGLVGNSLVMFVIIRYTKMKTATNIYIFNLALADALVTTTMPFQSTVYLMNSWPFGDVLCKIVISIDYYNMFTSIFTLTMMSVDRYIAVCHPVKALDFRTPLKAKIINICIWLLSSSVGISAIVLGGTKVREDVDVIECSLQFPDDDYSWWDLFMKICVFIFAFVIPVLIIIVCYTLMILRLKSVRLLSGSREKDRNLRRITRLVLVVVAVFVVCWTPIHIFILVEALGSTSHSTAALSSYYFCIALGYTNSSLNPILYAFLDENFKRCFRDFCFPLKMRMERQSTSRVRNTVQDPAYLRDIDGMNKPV

[16] = target: Prostaglandin E2 receptor EP4 subtype (Homo sapiens) (UniProt P35408); test: Inhibition of human prostanoid EP4 receptor at 10 uM by radioligand displacement assay
Prostaglandin E2 receptor EP4 subtype (Homo sapiens), sequence (P35408 whole entry): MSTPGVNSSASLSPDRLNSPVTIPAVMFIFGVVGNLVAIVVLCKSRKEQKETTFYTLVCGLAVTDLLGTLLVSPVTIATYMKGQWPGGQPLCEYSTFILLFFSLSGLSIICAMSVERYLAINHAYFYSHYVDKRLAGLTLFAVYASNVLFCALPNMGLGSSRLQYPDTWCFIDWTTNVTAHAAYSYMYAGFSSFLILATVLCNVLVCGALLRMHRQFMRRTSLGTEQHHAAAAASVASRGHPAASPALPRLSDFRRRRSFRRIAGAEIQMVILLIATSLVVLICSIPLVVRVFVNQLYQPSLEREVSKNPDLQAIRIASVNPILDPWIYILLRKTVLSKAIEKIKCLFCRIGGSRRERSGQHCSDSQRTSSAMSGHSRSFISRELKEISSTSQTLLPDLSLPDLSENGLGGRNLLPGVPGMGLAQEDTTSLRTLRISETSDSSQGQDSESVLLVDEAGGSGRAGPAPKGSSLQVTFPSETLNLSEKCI

[17] = target: Histamine H1 receptor (Homo sapiens) (UniProt P35367); test: Inhibition of human histamine H1 receptor at 10 uM by radioligand displacement assay
Histamine H1 receptor (Homo sapiens), sequence (P35367 whole entry): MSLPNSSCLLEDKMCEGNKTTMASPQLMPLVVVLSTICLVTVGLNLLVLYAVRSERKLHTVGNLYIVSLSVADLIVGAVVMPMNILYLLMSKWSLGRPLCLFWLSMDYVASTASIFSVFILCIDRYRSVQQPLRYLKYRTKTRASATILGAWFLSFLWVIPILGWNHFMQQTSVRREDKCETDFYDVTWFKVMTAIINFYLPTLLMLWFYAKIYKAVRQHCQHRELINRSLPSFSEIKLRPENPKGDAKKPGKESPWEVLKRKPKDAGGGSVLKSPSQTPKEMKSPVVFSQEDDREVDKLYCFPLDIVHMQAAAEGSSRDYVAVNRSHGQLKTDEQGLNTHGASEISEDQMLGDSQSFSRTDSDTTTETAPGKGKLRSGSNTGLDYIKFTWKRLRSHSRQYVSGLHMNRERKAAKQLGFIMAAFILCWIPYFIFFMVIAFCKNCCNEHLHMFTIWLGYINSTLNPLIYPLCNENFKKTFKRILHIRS

hERG (KCNH2) = hERG (KCNH2) (Homo sapiens, UniProt Q12809); test: Inhibition of human ERG at 10 uM by radioligand displacement assay
hERG (KCNH2), sequence (Q12809 whole entry): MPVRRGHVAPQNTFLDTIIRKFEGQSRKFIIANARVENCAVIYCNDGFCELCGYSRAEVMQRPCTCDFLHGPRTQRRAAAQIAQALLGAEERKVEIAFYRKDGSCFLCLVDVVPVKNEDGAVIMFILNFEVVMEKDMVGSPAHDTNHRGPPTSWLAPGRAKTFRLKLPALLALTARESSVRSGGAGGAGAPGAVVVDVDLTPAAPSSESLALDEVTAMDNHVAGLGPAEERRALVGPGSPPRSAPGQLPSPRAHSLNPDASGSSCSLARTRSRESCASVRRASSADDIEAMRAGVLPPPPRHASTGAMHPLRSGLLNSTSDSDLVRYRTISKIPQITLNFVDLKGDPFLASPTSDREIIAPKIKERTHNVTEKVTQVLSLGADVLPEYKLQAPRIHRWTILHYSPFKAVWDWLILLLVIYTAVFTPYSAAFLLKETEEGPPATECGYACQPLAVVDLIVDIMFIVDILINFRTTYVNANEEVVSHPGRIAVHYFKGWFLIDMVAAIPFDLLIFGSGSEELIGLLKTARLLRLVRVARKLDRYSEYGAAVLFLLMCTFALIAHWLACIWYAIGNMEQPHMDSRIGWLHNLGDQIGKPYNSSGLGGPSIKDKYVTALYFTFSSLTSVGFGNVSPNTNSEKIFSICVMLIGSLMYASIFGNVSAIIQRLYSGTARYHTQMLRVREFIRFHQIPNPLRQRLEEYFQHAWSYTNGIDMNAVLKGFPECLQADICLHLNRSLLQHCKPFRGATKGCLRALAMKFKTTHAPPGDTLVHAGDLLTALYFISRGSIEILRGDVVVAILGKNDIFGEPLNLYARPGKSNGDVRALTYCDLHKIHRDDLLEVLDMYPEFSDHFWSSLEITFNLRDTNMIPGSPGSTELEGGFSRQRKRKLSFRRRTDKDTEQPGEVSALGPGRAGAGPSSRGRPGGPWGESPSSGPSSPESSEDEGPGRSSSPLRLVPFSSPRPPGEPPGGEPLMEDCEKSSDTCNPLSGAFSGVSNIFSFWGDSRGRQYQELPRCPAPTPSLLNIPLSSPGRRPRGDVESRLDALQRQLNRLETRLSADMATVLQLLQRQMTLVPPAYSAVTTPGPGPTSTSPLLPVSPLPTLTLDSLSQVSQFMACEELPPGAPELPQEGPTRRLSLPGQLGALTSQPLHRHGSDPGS

Mu-type opioid receptor (Homo sapiens), sequence (P35372 whole entry): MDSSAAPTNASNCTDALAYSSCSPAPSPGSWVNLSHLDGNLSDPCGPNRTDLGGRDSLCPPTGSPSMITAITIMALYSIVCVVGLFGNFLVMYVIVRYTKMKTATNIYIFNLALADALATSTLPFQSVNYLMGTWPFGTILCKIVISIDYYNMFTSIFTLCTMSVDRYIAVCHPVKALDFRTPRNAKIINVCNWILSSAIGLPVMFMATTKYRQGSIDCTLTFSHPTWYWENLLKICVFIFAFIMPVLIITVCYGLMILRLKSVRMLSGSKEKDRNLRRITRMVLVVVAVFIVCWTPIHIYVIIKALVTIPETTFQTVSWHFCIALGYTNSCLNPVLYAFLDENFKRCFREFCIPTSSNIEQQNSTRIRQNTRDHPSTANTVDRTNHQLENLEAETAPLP

O=C(NCCCn1ccnc1)c1cc(-c2ccccc2)on1
inhibition [1]: inactive

O=C(NCCCCO)c1cc(-c2ccccc2)on1
inhibition [1]: inactive

O=C(NCC1CC1)c1cc(-c2ccccc2)on1
inhibition [1]: inactive

CCCCNC(=O)c1cc(-c2ccc(F)cc2)on1
inhibition [1]: inactive

c1ccc(-c2ccc(CNc3nc(-c4ccccn4)nnc3-c3ccccc3)cc2)cc1
inhibition (Homo sapiens): 51%
inhibition [2]: inactive
inhibition (Rattus norvegicus [3]): 56%
inhibition [4]: 53%
inhibition [5]: 87%
inhibition [6]: 80%
inhibition [7]: 92%
inhibition [1]: 85%
inhibition (Rattus norvegicus [8]): 105%
inhibition [9]: 57%
inhibition [10]: 67%
Activity (U2OS [11]): Non-toxic
Activity (U2OS [12]): Non-toxic
inhibition [13]: 54%
inhibition [14]: 67%
inhibition [15]: 71%
inhibition [16]: 53%
inhibition [17]: 65%
inhibition at 10 µM (hERG (KCNH2)): 86%

O=C(NCCCN1CCOCC1)c1cc(-c2ccccc2)on1
inhibition [1]: inactive
